Assay results: patent US20030215462A1, “Use of UGT inhibitors to increase bioavailability” (priority 2001, published 2003)
Values belong to the compound of their own block, whether it stands above or below them.

Tests used:
[1] = target: T1, UGT1A1 (Homo sapiens, UniProt P22309); assay: in vitro
T1 sequence (P22309 26-533): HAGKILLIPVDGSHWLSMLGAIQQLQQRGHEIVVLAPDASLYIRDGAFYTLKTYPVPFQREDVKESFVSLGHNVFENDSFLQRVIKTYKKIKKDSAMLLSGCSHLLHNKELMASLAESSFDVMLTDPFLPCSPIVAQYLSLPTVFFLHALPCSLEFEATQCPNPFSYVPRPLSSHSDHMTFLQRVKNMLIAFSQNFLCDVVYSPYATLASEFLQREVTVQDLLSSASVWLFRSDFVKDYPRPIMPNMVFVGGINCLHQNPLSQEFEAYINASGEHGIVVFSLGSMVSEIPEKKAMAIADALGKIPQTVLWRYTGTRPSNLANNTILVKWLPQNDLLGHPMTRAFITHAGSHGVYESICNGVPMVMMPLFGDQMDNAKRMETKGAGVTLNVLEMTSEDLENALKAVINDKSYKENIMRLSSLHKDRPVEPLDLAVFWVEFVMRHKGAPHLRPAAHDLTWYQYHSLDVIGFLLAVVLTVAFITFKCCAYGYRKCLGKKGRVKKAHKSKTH
Method: (§1) Compounds were eluted using a binary solvent gradient system. Solvent A was water brought to pH 8 with NH4OH. Solvent B was methanol. Solvent flow rate was 1 ml/min and the column temperature was maintained at 50° C. Detection was at 280 nm. […] The system was then returned to the initial conditions and equilibrated for 3 min.

[2] = target: T2, UGT1A3 (Homo sapiens, UniProt P35503); assay: in vitro
T2 sequence (P35503 29-534): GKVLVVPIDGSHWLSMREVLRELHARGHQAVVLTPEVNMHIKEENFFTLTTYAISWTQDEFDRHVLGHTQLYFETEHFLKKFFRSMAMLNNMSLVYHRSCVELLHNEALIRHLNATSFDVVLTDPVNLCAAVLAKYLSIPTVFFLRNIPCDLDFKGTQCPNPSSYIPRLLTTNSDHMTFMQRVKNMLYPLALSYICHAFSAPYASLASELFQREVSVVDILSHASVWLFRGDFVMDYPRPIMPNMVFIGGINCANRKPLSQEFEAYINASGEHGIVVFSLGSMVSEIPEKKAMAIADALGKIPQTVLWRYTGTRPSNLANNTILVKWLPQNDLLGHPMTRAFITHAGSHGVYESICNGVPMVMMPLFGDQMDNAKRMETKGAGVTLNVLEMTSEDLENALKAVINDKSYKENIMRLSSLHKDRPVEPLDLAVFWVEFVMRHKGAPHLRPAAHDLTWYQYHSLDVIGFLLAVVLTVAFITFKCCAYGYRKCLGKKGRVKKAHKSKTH
Method: as §1

[3] = target: T3, UGT1A9 (Homo sapiens, UniProt O60656); assay: in vitro; details: pH 7.5, % of control metabolism
T3 sequence (O60656 26-530): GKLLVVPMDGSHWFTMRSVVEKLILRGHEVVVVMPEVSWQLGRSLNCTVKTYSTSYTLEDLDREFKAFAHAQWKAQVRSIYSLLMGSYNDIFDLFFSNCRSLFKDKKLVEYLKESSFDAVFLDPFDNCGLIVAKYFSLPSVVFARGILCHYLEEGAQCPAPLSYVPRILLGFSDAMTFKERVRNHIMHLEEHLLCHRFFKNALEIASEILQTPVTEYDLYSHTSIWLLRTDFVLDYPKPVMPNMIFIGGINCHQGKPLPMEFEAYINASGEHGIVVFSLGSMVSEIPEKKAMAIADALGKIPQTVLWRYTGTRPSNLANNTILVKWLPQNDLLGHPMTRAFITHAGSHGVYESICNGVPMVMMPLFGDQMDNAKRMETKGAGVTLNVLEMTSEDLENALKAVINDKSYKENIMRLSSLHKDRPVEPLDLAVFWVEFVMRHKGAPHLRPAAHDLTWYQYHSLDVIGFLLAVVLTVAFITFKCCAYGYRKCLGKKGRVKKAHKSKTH
Method: as §1

[4] = target: T4, UGT1A10 (Homo sapiens, UniProt Q9HAW8); assay: in vitro; details: pH 7.5, % of control metabolism
T4 sequence (Q9HAW8 26-530): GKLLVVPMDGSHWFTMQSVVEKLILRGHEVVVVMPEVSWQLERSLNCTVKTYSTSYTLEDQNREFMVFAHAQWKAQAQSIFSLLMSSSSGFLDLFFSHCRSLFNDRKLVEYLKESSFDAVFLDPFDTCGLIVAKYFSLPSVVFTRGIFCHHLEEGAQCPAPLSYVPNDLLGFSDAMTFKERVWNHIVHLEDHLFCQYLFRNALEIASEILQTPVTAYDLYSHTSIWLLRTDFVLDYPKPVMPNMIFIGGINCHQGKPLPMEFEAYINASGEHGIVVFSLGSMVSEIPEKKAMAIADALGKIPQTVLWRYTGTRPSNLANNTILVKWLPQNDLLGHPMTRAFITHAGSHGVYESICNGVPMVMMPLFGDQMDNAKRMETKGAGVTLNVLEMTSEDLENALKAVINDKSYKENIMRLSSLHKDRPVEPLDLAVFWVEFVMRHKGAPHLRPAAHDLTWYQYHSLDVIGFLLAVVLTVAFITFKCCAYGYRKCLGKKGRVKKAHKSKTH
Method: as §1

[5] = test system: T5, UGT enzymes of human liver microsomes; assay: Inhibition of 7-HFC glucuronidation in human liver microsomes; format: biochemical; details: 7-HFC 50 μM, human liver microsomes 100 μg/ml, 15 min
T5 construct: percentage of control metabolism, 7-HFC glucuronidation; percentage of control metabolism, 7-HFC glucuronidation

[6] = test system: UGT enzymes of human liver microsomes; assay: Inhibition of raloxifene glucuronidation (G1, G2) in human liver microsomes; format: biochemical; details: raloxifene 50 μM; for % of control metabolism (SD, n = 3), raloxifene glucuronide G1 / % of control metabolism (SD, n = 3), raloxifene glucuronide G2: human liver microsomes 250 μg/ml, 15 min
Text: Compounds were eluted using a binary solvent gradient system. […] Solvent B was methanol. […] Detection was at 280 nm.

[7] = target: T1, UGT1A1; assay: Inhibition of raloxifene glucuronidation by recombinant UGT1A1 Supersomes; details: UGT1A1
Method: as §1

[8] = target: T2, UGT1A3; assay: Inhibition of raloxifene glucuronidation by recombinant UGT1A3 Supersomes; details: UGT1A3
Method: as §1

[9] = target: T3, UGT1A9; assay: Inhibition of raloxifene glucuronidation by recombinant UGT1A9 Supersomes; details: for activity at 15 min, 50 µM: human, Supersomes with recombinant human UGT1A9, pH 7.5, probe raloxifene 50 μM
Method: as §1

[10] = target: T4, UGT1A10; assay: Inhibition of raloxifene glucuronidation by recombinant UGT1A10 Bacculosomes; details: UGT1A10
Method: as §1

[11] = target: T6, UGT enzymes of human liver microsomes (Homo sapiens, UniProt P16662); assay: Inhibition of zidovudine glucuronidation in human liver microsomes; format: biochemical; details: liver lot 062101; inhibitor 500 μM
T6 construct: residual metabolism (percentage of control), zidovudine glucuronidation; other: liver lot 062101; residual metabolism (percentage of control), zidovudine glucuronidation; residual metabolism (percentage of control)
T6 sequence (P16662 1-529): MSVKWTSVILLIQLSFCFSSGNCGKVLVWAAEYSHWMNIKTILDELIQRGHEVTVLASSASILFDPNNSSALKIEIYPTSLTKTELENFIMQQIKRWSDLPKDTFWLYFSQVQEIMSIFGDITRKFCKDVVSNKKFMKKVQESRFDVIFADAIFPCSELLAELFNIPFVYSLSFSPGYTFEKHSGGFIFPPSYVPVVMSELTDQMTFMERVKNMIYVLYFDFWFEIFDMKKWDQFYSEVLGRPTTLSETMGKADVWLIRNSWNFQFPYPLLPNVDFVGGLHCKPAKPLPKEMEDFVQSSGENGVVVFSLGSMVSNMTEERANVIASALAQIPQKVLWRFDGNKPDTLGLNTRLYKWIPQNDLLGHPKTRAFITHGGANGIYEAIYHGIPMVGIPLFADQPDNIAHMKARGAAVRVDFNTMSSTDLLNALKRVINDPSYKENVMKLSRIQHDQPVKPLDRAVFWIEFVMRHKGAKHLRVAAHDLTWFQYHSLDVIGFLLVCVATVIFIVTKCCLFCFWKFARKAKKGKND
Method: Compounds were eluted using a binary solvent gradient system where solvent A was dilute phosphoric acid (pH 3) and solvent B was acetonitrile.
Standardized incubations utilized 500 μM zidovudine substrate, 1 mg/ml microsomal protein, 5 mM UDPGA and a 30 min incubation time. […] Int.

[12] = test system: T7, UGT enzymes of human liver microsomes; assay: Inhibition of labetalol glucuronidation (LG1, LG2) in human liver microsomes; format: biochemical; details: labetalol 50 μM; inhibitor 100 μM
T7 construct: residual metabolism (percentage of control), labetalol LG1; other: labetalol 50 μM; residual metabolism (percentage of control), labetalol LG1; residual metabolism (percentage of control), labetalol LG2; inhi
Method: Supernatants were analyzed by HPLC with fluorescence detection.
Compounds were eluted using a binary solvent gradient system where solvent A was 5:5:90 tetrahydrofuran-acetonitrile-(NH4)2HPO4 50 mM, while solvent B was 25:25:50 tetrahydrofuran-acetonitrile-(NH4)2HPO4 50 mM. Solvent flow rate was 0.75 ml/min and the column temperature was ambient. […] Labetalol and metabolites were measured by fluorescence detection using a Jasco model FP920 detector. Excitation and emission wavelengths were 370 nm 418 nm respectively. Retention times for salicylamide internal standard and labetalol were 6.6 min and 15.0 min respectively.

[13] = pH 7.5, % of control metabolism, raloxifene G1
[14] = pH 7.5, % of control metabolism, raloxifene G2
[15] = pH 7.5, Inhibition of raloxifene glucuronidation, G1, UGT1A1
[16] = pH 7.5, Inhibition of raloxifene glucuronidation, G2, UGT1A1
[17] = pH 7.5, Inhibition of raloxifene glucuronidation, G1, UGT1A3
[18] = pH 7.5, Inhibition of raloxifene glucuronidation, G2, UGT1A3

activity at 15 min, 10 µM [1, 13]: 69% | activity at 15 min, 25 µM [1, 13]: 46% | activity at 15 min, 50 µM [1, 13]: 18% | activity at 15 min, 10 µM [1, 14]: 63% | activity at 15 min, 25 µM [1, 14]: 33% | activity at 15 min, 50 µM [1, 14]: 7% | activity at 15 min, 25 µM [1, 15]: 46% | activity at 15 min, 50 µM [1, 15]: 18% | activity at 15 min, 25 µM [1, 16]: 33% | activity at 15 min, 50 µM [1, 16]: 7% | activity at 15 min, 10 µM [2, 13]: 81% | activity at 15 min, 25 µM [2, 13]: 59% | activity at 15 min, 50 µM [2, 13]: 37% | activity at 15 min, 10 µM [2, 14]: 56% | activity at 15 min, 25 µM [2, 14]: 32% | activity at 15 min, 50 µM [2, 14]: 10% | activity at 15 min, 10 µM [2, 17]: 81% | activity at 15 min, 25 µM [2, 17]: 58% | activity at 15 min, 50 µM [2, 17]: 37% | activity at 15 min, 10 µM [2, 18]: 56% | activity at 15 min, 25 µM [2, 18]: 32% | activity at 15 min, 50 µM [2, 18]: 10% | activity at 15 min, 10 µM ([3]; raloxifene G1): 93% | activity at 15 min, 25 µM ([3]; raloxifene G1): 74% | activity at 15 min, 50 µM ([3]; raloxifene G1): 59% | activity at 15 min, 10 µM ([3]; raloxifene G2): 72% | activity at 15 min, 25 µM ([3]; raloxifene G2): 47% | activity at 15 min, 50 µM ([3]; raloxifene G2): 22% | activity at 15 min, 50 µM ([4]; raloxifene G1): 56% | activity at 15 min, 50 µM ([4]; raloxifene G2): 64%
Compound: COc1cc(C2Oc3cc([C@H]4Oc5cc(O)cc(O)c5C(=O)[C@@H]4O)ccc3OC2CO)ccc1O (some centres unmarked) [Silibinin]

% of control metabolism (SD, n = 3), 7-HFC glucuronidation ([5]; inhibitor 500 μM): 83 (2) % | % of control metabolism (SD, n = 3), raloxifene glucuronide G1 ([6]; inhibitor 100 μM): 89 (3) % | % of control metabolism (SD, n = 3), raloxifene glucuronide G1 ([6]; inhibitor 500 μM): 43 (5) % | % of control metabolism (SD, n = 3), raloxifene glucuronide G2 ([6]; inhibitor 100 μM): 89 (2) % | % of control metabolism (SD, n = 3), raloxifene glucuronide G2 ([6]; inhibitor 500 μM): 47 (1) % | % of control metabolism, raloxifene G1 ([6]; inhibitor 100 μM): 89 (3) % | % of control metabolism, raloxifene G2 ([6]; inhibitor 100 μM): 89 (2) % | activity at 15 min, 50 µM [1, 13]: 90% | activity at 15 min, 50 µM [1, 14]: 89% | activity at 15 min, 50 µM [1, 15]: 90% | activity at 15 min, 50 µM [1, 16]: 89% | activity at 15 min, 50 µM [2, 13]: 95% | activity at 15 min, 50 µM [2, 14]: 87% | activity at 15 min, 50 µM [2, 17]: 95% | activity at 15 min, 50 µM [2, 18]: 87% | activity at 15 min, 50 µM ([4]; raloxifene G1): 110% | activity at 15 min, 50 µM ([4]; raloxifene G2): 98% | inhibition of raloxifene glucuronidation, in words [7]: poor inhibitors | inhibition of raloxifene glucuronidation, in words [8]: poor inhibitors | inhibition of raloxifene glucuronidation, in words ([9]; UGT1A9): poor inhibitors | activity at 15 min, 50 µM ([9]; formation of glucuronide G1, % of control metabolism, raloxifene G1, UGT1A9, inhibitor 50 μM): 81% | activity at 15 min, 50 µM ([9]; formation of glucuronide G2, % of control metabolism, raloxifene G2, UGT1A9, inhibitor 50 μM): 83% | Inhibition of raloxifene glucuronidation, UGT1A9, second line per inhibitor (G2) ([9]; second line (G2, metabolite not given), inhibitor 50 μM, raloxifene 50 μM, 250 μg/ml Supersomes, 1 mM UDPGA, 15 min): 83 (3) | inhibition of raloxifene glucuronidation, in words [10]: poor inhibitors
Compound: COc1c(C)c2c(c(O)c1C/C=C(\C)CCC(=O)O)C(=O)OC2 [Mycophenolic acid, reference compound]

Compound: Oc1cc(O)c2c(c1)O[C@H](c1cc(O)c(O)c(O)c1)[C@H](O)C2 [Epigallocatechin]
% of control metabolism (SD, n = 3), 7-HFC glucuronidation ([5]; inhibitor 100 μM): 77 (1) % | % of control metabolism (SD, n = 3), 7-HFC glucuronidation ([5]; inhibitor 200 μM): 90 (1) % | % of control metabolism (SD, n = 3), 7-HFC glucuronidation ([5]; inhibitor 500 μM): 81 (4) % | % of control metabolism (SD, n = 3), raloxifene glucuronide G1 ([6]; inhibitor 500 μM): 65 (4) % | % of control metabolism (SD, n = 3), raloxifene glucuronide G2 ([6]; inhibitor 500 μM): 79 (4) % | residual metabolism (percentage of control), zidovudine glucuronidation [11]: 90 (3) % | residual metabolism (percentage of control), labetalol LG1 [12]: 96 (7) % | residual metabolism (percentage of control), labetalol LG2 [12]: 87 (5) %
